pEC50, pKi: −log10 of the molar value.
Columns and labels:
Bcl-2 protein = Bcl-2 protein (Homo sapiens (Human), UniProt P10415); assay: TR-FRET binding assay, Bcl-2 (F-Bak peptide probe); conditions: Bak BH3 peptide probe, Wang's equation
Experimental: (§1) Determination of the utility of compounds having Formula (I) or Formula (II) as binders to and inhibitors of anti-apoptotic Bcl-2 proteins was performed using the Time Resolved-Fluorescence Resonance Energy Transfer (TR-FRET) Assay. Tb-anti-GST antibody was purchased from Invitrogen (Catalog No. PV4216).
A Bcl-2 human encoding sequence was cloned into a pET41A vector (Novagen). The protein was expressed with E. coli. BL21(DE3)-T1R strain in OETB autoinduction medium at 30° C. for 25 hours. The cell pellets were resuspended in lysis buffer (50 mM Tris, 140 mM NaCl, 1 mM DTT, 10% Glycerol, 2 mM MgCl2, pH 7.3) and lysed with Microfluidizer. The Bcl-2 protein in clarified cell-lysate was purified with affinity chromatography (GST and Ni-NTA). The eluate was loaded onto a Superdex 75 column and further purified with a Q Sepharose column. The protein was purified on a phenyl hydrophobic interaction column and dialyzed in the storage buffer (50 mM Tris, 50 mM NaCl, 2 mM DTT, pH 7.5) and stored at −80° C.
(§2) […] of a protein (Bcl-2 or Bcl-xL)/probe/antibody mixture pre-equilibrated for one hour in assay buffer was added to each well at final concentrations listed in Table 6 below.
(§3) The samples were then mixed on a shaker for 1 minute and equilibrated for an additional 3 hours at room temperature. For each assay plate, a probe/antibody and protein/antibody/probe mixture were included as a negative and a positive control, respectively. Fluorescence was measured on the Envision (Perkin Elmer) using a 340/35 nm excitation filter and 520/525 (F-Bak) and 495/510 nm (Tb-labeled anti-GST antibody) emission filters. Inhibition constants (Ki) were determined using Wang's equation (Wang FEBS Lett. 1995, 360, 111-114). The TR-FRET assay can be performed in the presence of varying concentrations of human serum (HS) to determine apparent half maximal inhibitory concentration (IC50) after HS protein binding.
(§4) Inhibition constants were determined using Wang's equation (Wang FEBS Lett. 1995, 360:111-4).

Molt-4 cells = assay: Cell viability counter screen assay (CellTiter-Glo) in Molt-4 cells; assay type: cell-based; conditions: 24 hours, 10% Human Serum, 50% decrease in cell viability
Method in brief: (§5)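 RS4;11 or Molt-4 cells (3000 per well) in RPMI 1640 with 10% human serum treated with compound for 24 h, 5% CO2. Viability measured by CellTiter-Glo as percent of control; EC50 from sigmoidal dose-response curves.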

RS4;11 cells = assay: Cell viability assay (CellTiter-Glo) in RS4;11 cell line; assay type: cell-based; conditions: 24 hours, 10% Human Serum, 50% decrease in cell viability
Method in brief: as §5

Bcl-xL protein = Bcl-xL protein (Homo sapiens (Human), UniProt Q07817); assay: TR-FRET binding assay, Bcl-xL (F-Bak peptide probe); conditions: Bak BH3 peptide probe, Wang's equation
Experimental: as §1
A human Bcl-xL encoding sequence was cloned into a pET41A vector. The protein was expressed with E. coli. BL21(DE3)-T1R strain in OETB autoinduction medium at 30° C. for 25 hours. The cell pellets were resuspended in lysis buffer (50 mM Tris, 140 mM NaCl, 1 mM DTT, 10% Glycerol, 0.1% Triton X-100, pH 7.5) and lysed with Microfluidizer. The Bcl-xL protein in clarified cell-lysate was purified with GST affinity chromatography. The eluate was dialyzed in the storage buffer (1×PBS, 10% Glycerol, 2 mM DTT, 1 mM Sodium Azide, pH 7.4) and stored at −80° C.
as §2, §3, §4

Sequence of Bcl-xL protein (Q07817 other isoform, or with tags, fused parts or gaps): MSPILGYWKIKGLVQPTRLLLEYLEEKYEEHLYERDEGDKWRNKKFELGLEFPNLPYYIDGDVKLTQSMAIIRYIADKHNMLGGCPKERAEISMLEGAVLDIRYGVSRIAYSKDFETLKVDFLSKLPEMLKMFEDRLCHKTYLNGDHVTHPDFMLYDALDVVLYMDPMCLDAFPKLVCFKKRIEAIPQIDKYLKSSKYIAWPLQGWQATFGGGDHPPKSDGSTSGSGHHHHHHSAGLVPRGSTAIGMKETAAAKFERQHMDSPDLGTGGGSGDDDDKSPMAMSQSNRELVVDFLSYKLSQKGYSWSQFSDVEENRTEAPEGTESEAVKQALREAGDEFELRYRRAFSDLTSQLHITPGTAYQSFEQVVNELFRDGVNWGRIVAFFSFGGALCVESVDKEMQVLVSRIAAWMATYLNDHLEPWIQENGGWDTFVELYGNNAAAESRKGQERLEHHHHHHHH
Sequence of Bcl-2 protein (P10415 other isoform, or with tags, fused parts or gaps): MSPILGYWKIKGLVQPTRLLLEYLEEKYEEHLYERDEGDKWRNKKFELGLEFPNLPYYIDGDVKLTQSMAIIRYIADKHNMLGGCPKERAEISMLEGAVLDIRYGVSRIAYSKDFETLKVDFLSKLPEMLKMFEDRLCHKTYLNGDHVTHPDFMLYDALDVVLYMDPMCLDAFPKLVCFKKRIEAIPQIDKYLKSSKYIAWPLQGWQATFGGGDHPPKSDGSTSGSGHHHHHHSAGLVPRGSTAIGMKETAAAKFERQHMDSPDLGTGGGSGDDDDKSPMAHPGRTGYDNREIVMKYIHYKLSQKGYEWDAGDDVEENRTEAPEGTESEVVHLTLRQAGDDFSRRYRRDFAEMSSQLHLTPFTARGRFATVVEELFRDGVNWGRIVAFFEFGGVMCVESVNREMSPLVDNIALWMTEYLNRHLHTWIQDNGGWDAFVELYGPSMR

Structure (SMILES)	pKi (Bcl-2 protein)	pEC50 (Molt-4 cells)	pEC50 (RS4;11 cells)	pKi (Bcl-xL protein)
CC1(C)CC(c2ccc(Cl)cc2)=C2CN3CCN(c4ccc(C(=O)NS(=O)(=O)c5ccc(NCC6CCCCO6)c([N+](=O)[O-])c5)c(N5CCCOc6nc7[nH]ccc7cc65)c4)C[C@H]3COCCCO[C@@H]2C1 (stereo partly drawn) [Example 45, 4-((4aS,10aR)-14-(4-chlorophenyl)-12,12-dimethyl-1,2,4a,5,8,9,10a,11,13,15-decahydro-7H,12H-benzo[f]pyrazino[2,1-c][1,8]dioxa[4]azacycloundecin-3(4H)-yl)-2-(3,4-dihydro-2H-pyrrolo[3′,2′:5,6]pyrido[2,3-b][1,4]oxazepin-1(7H)-yl)-N-((3-nitro-4-(((tetrahydro-2H-pyran-2-yl)methyl)amino)phenyl)sulfonyl)benzamide]	9.62	< 5.00	7.97	7.56
COC[C@]1(F)C[C@H](CNc2ccc(S(=O)(=O)NC(=O)c3ccc(N4CCN5CC6=C(c7ccc(Cl)cc7)CC(C)(C)C[C@H]6OCCCOC[C@@H]5C4)cc3N3CCCOc4nc5[nH]ccc5cc43)cc2[N+](=O)[O-])C1 [Example 47, 4-((4aS,10aR)-14-(4-chlorophenyl)-12,12-dimethyl-1,2,4a,5,8,9,10a,11,13,15-decahydro-7H,12H-benzo[f]pyrazino[2,1-c][1,8]dioxa[4]azacycloundecin-3(4H)-yl)-2-(3,4-dihydro-2H-pyrrolo[3′,2′:5,6]pyrido[2,3-b][1,4]oxazepin-1(7H)-yl)-N-((4-((((1r,3r)-3-fluoro-3-(methoxymethyl)cyclobutyl)methyl)amino)-3-nitrophenyl)sulfonyl)benzamide]	9.55	< 5.00	7.96	7.59
CO[C@]1(CF)C[C@@H](CNc2ccc(S(=O)(=O)NC(=O)c3ccc(N4CCN5CC6=C(c7ccc(Cl)cc7)CC(C)(C)C[C@H]6OCCCOC[C@@H]5C4)cc3N3CCCOc4nc5[nH]ccc5cc43)cc2[N+](=O)[O-])C1 [Example 48, 4-((4aS,10aR)-14-(4-chlorophenyl)-12,12-dimethyl-1,2,4a,5,8,9,10a,11,13,15-decahydro-7H,12H-benzo[f]pyrazino[2,1-c][1,8]dioxa[4]azacycloundecin-3(4H)-yl)-2-(3,4-dihydro-2H-pyrrolo[3′,2′:5,6]pyrido[2,3-b][1,4]oxazepin-1(7H)-yl)-N-((4-((((1r,3r)-3-(fluoromethyl)-3-methoxycyclobutyl)methyl)amino)-3-nitrophenyl)sulfonyl)benzamide]	9.69	5.23	7.74	7.54
CC1(C)CC(c2ccc(Cl)cc2)=C2CN3CCN(c4ccc(C(=O)NS(=O)(=O)c5cnc(OC[C@H]6CC[C@@](C)(O)CC6)c(Cl)c5)c(N5CCCOc6nc7[nH]ccc7cc65)c4)C[C@H]3COCCCO[C@@H]2C1 [Example 50, N-((5-chloro-6-(((1s,4s)-4-hydroxy-4-methylcyclohexyl)methoxy)pyridin-3-yl)sulfonyl)-4-((4aS,10aR)-14-(4-chlorophenyl)-12,12-dimethyl-1,2,4a,5,8,9,10a,11,13,15-decahydro-7H,12H-benzo[f]pyrazino[2,1-c][1,8]dioxa[4]azacycloundecin-3(4H)-yl)-2-(3,4-dihydro-2H-pyrrolo[3′,2′:5,6]pyrido[2,3-b][1,4]oxazepin-1(7H)-yl)benzamide]	9.63	< 5.00	7.38	7.40
CO[C@@H]1CC[C@@H](COc2ccc(S(=O)(=O)NC(=O)c3ccc(N4CCN5CC6=C(c7ccc(Cl)cc7)CC(C)(C)C[C@H]6OCCCOC[C@@H]5C4)cc3N3CCCOc4nc5[nH]ccc5cc43)cc2[N+](=O)[O-])OC1 [Example 51]	10.00	< 5.00	8.02	7.72
